From paper PMC10353390, “Biological and Structural Analyses of New Potent Allosteric Inhibitors of HIV-1 Integrase” (Antimicrobial Agents and Chemotherapy, 2023)
Where two headings read alike, the source gives them in different places.

Tests used:
[1] = tested on: HIV-1 strains resistant to INSTIs, NRTIs, NNRTIs or PIs; type: cell-based; details: for Fold change in EC50 relative to NL4-3, E92Q / Fold change in EC50 relative to NL4-3, G140S / Fold change in EC50 relative to NL4-3, G140S/Q148H / Fold change in EC50 relative to NL4-3, N155H / Fold change in EC50 relative to NL4-3, Q148H / Fold change in EC50 relative to NL4-3, Y143R / Fold change in EC50 relative to NL4-3, E92Q/N155H (pat.) / Fold change in EC50 relative to NL4-3, G140S/Q148H (pat.) / Fold change in EC50 relative to NL4-3, T97A/N155H (pat.): INSTI-resistant; for Fold change in EC50 relative to NL4-3, E92Q / Fold change in EC50 relative to NL4-3, G140S / Fold change in EC50 relative to NL4-3, G140S/Q148H / Fold change in EC50 relative to NL4-3, N155H / Fold change in EC50 relative to NL4-3, Q148H / Fold change in EC50 relative to NL4-3, Y143R / Fold change in EC50 relative to NL4-3, K103N/Y181C: NL4-3 background; for Fold change in EC50 relative to NL4-3, E92Q/N155H (pat.) / Fold change in EC50 relative to NL4-3, G140S/Q148H (pat.) / Fold change in EC50 relative to NL4-3, T97A/N155H (pat.): primary patient-derived strain; for Fold change in EC50 relative to NL4-3, NLAY351717: NRTI-resistant clone; for Fold change in EC50 relative to NL4-3, NLAY351753: NRTI/NNRTI-resistant clone; for Fold change in EC50 relative to NL4-3, K103N/Y181C: NRTI/NNRTIs group; for Fold change in EC50 relative to NL4-3, ARP-4595 / Fold change in EC50 relative to NL4-3, ARP-4596 / Fold change in EC50 relative to NL4-3, ARP-11801 / Fold change in EC50 relative to NL4-3, ARP-11803 / Fold change in EC50 relative to NL4-3, ARP-11807 / Fold change in EC50 relative to NL4-3, ARP-11808: PI-resistant virus
Description: To this end, we used both recombinant viruses constructed by introducing described drug resistance mutations into NL4-3 HIV-1 clone as well as drug-resistant clinical HIV-1 isolates.
(§1) MT4 cells growing exponentially at the density of 10^6/mL were infected with HIV-1 strain NL4-3 at a multiplicity of infection (MOI) of 0.001 for 2 h in the presence of different concentrations of compounds, and the CellTiter-Glo luminescent reagent (Promega) was used to quantify cell viability as described previously ([12]).

[2] = tested on: NL4-3 HIV-1 strain; test: Multiple-round infection assay in MT4 cells, NL4-3; type: cell-based
[3] = tested on: NL4-3 HIV-1 with INLAI-selected IN single point mutations; type: cell-based
[4] = Cytotoxicity assay in MT4 cells; type: cell-based; details: human, MT4 cells (proliferating human T-cell line), CellTiter-Glo
Source text: Growth inhibition was monitored in a proliferating human T-cell line (MT4) with different concentrations of compounds, using the CellTiter-Glo luminescent reagent (Promega), as previously described ([12]).

[5] = tested on: lab-adapted and clinical HIV-1 isolates; test: Infection assays in primary T CD4+ lymphocytes; type: cell-based; details: Human immunodeficiency virus 1, Lymphocyte
[6] = tested on: VSV-G-pseudotyped NL4-3Δenv-luc; test: microbe, parasite or virus in culture; type: cell-based, HIV-1; details: Human immunodeficiency virus 1, NL43, MT4, read-out: EC50 in single-round infection
[7] = tested on: HXB2 HIV-1 strain; test: Multiple-round infection assay in MT4 cells, HXB2; type: cell-based; details: Human immunodeficiency virus 1, HXB2, MT4, read-out: EC50 HXB2
Description: Antiretroviral activity of BDM-2 and its analogs was first evaluated in lymphoblastoid cell line MT4 and in primary human T lymphocytes using NL4-3 and HXB2 laboratory HIV-1 isolates.
as §1

Row | Structure (SMILES) | Fold change in EC50 relative to NL4-3, E92Q [1] | Fold change in EC50 relative to NL4-3, G140S [1] | Fold change in EC50 relative to NL4-3, G140S/Q148H [1] | Fold change in EC50 relative to NL4-3, N155H [1] | Fold change in EC50 relative to NL4-3, Q148H [1] | Fold change in EC50 relative to NL4-3, Y143R [1] | Fold change in EC50 relative to NL4-3, E92Q/N155H (pat.) [1] | Fold change in EC50 relative to NL4-3, G140S/Q148H (pat.) [1] | Fold change in EC50 relative to NL4-3, T97A/N155H (pat.) [1] | Fold change in EC50 relative to NL4-3, NLAY351717 [1] | Fold change in EC50 relative to NL4-3, NLAY351753 [1] | Fold change in EC50 relative to NL4-3, K103N/Y181C [1] | Fold change in EC50 relative to NL4-3, ARP-4595 [1] | Fold change in EC50 relative to NL4-3, ARP-4596 [1] | Fold change in EC50 relative to NL4-3, ARP-11801 [1] | Fold change in EC50 relative to NL4-3, ARP-11803 [1] | Fold change in EC50 relative to NL4-3, ARP-11807 [1] | Fold change in EC50 relative to NL4-3, ARP-11808 [1] | other results
1 | Cc1cn([C@H]2C[C@H](N=[N+]=[N-])[C@@H](CO)O2)c(=O)[nH]c1=O [AZT, azidothymidine] | 1 | 1 | 1 | 1 | 1 | 1 | 1 | 1 | 4 | 150 | 210 | 0.1 | 2 | 1 | 1 | 2 | 2 | 5 | 
2 | CC(C)CN(C[C@@H](O)[C@H](Cc1ccccc1)NC(=O)O[C@H]1CO[C@H]2OCC[C@H]21)S(=O)(=O)c1ccc(N)cc1 [DRV, darunavir] |  |  | 1 |  |  |  |  |  |  | 1 | 1 | 1 | 1 | 1 | 31 | 24 | 12 | 240 | 
3 | O=C1Nc2ccc(Cl)cc2[C@@](C#CC2CC2)(C(F)(F)F)O1 [EFV, efavirenz] | 1 | 1 | 1 | 1 | 1 | 1 | 1 | 1 | 2 | 2 | 39 | 51 | 1 | 1 | 0.5 | 1 | 2 | 1 | 
4 | COc1cc2c(cc1Cc1cccc(Cl)c1F)c(=O)c(C(=O)O)cn2[C@H](CO)C(C)C [EVG, elvitegravir] | 24 | 2 | 2500 | 12 | 3 | 2 | 200 | 2000 | 440 | 1 | 1 | 1 | 1 | 1 | 1 | 1 | 2 | 2 | EC50 ([2]; Human immunodeficiency virus 1, NL43, MT4, wild type NL4-3, Table 9, read-out: EC50 NL4-3): 2.2 ± 1.2 nM; EC50 fold change compared to wild type NL4-3, A128T ([3]; NL4-3 IN A128T): 1; EC50 fold change compared to wild type NL4-3, H171Q ([3]; NL4-3 IN H171Q): 1; EC50 fold change compared to wild type NL4-3, N222K ([3]; NL4-3 IN N222K): 1; EC50 fold change compared to wild type NL4-3, T174I ([3]; NL4-3 IN T174I): 1; EC50 fold change compared to wild type NL4-3, Y99H ([3]; NL4-3 IN Y99H): 1
5 | CC(C)(C)NC(=O)[C@@H]1CN(Cc2cccnc2)CCN1C[C@@H](O)C[C@@H](Cc1ccccc1)C(=O)N[C@H]1c2ccccc2C[C@H]1O [IDV, indinavir] | 1 |  | 1 | 1 |  | 1 |  |  |  | 1 | 1 | 1 | 5 | 8 | 92 | 260 | 36 | 59 | 
6 | Cc1nnc(C(=O)NC(C)(C)c2nc(C(=O)NCc3ccc(F)cc3)c(O)c(=O)n2C)o1 [RAL, raltegravir] |  |  |  |  |  |  |  |  |  |  |  |  |  |  |  |  |  |  | CC50 [4]: 438000 ± 29000 nM; EC50 ([5]; read-out: EC50 33913N (B)): 2.1 ± 0.1 nM; EC50 ([5]; read-out: EC50 HXB2 (B)): 2.6 ± 1.4 nM; EC50 ([5]; read-out: EC50 KER2008 (A)): 6.7 ± 4 nM; EC50 ([5]; read-out: EC50 NL4-3 (B)): 4.9 ± 2.3 nM; EC50 ([5]; read-out: EC50 NP1525 (CRF01_AE)): 4 ± 1.7 nM; EC50 ([5]; read-out: EC50 NP1538 (B)): 1.7 ± 1.9 nM; EC50 ([2]; Human immunodeficiency virus 1, NL43, MT4, read-out: EC50 NL4-3): 14 ± 9 nM; EC90 ([2]; Human immunodeficiency virus 1, NL43, MT4, read-out: EC90 NL4-3): 28 ± 14 nM; EC50 [6]: 3.5 ± 1 nM; EC50 [7]: 8.7 ± 6 nM
7 | Cc1cc(/C=C/C#N)cc(C)c1Nc1ccnc(Nc2ccc(C#N)cc2)n1 [RPV, rilpivirine] |  | 1 | 1 |  | 1 |  | 1 | 1 | 1 | 1 | 0.4 | 3 | 1 | 1 | 0.4 | 1 | 1 | 1 | 
